# Data published in patent US20110104145A1, “METHOD FOR THE TREATMENT OR PROPHYLAXIS OF CHRONIC INFLAMMATORY DISEASES” (priority 2008, published 2011).
# Tested on: binding between IgA and CD89
# Assay: Blocking assay: two-dimensional polymorphonuclear cell migration to IgA-coated beads
# Assay type: cell-based, human
# Settings: PKH67-polymorphonuclear cells, blocker 1-100 μg/ml, 20' at 37° C., assay of example 4
# Method: FIG. 6. IgA-induced migration can be reduced by interfering with IgA-CD89 interactions. Percentage inhibition of polymorphonuclear cell migration in the presence of 3 different anti-FcαRI mAb (white bars), 6 peptides that mimic either the IgA binding site on CD89 or the CD89 binding site on IgA (black bars) or a soluble variant of CD89 or FcαRI (sFcalphaRI, grey bar).
# PKH67-polymorphonuclear cells (2.5×10^5 cells/well) were seeded in 96 wells flat bottom plates (Greiner), after which immunoglobulin-coated beads (10 μl/well) were added. For binding assays, cells were kept at 4° C. For migration assays, cells were incubated for 20′ 37° C., after which cell suspensions were collected and beads were washed 2 times with PBS to remove unbound PKH67-polymorphonuclear cells. Beads were incubated with a buffer containing 2.0 g/l hexadecyltrimethyl ammonium bromide, 1.0 g/l tween 20, 2.0 g/l BSA and 7.44 g/l EDTA in PBS to lyse bound PKH67-polymorphonuclear cells. Fluorescence was measured using 485 excitation and 520 emission filters (Fluostar Galaxy, BMG Labtechnologies, Offenburg, Germany).
# The blocking potential of anti-FcαRI antibodies and/or sFcαRI and/or peptides that mimic either the IgA binding site on CD89 or the CD89 binding site on IgA was investigated using a 2-dimensional polymorphonuclear cells migration assay as detailed in example 4. For that purpose, PKH67-polymorphonuclear cells were incubated with different concentrations (ranging from 1-100 μg/ml in RPMI) of either anti-FcαRI blocking antibodies or with peptides mimicking the IgA binding site on CD89 for 20 minutes at 37° C. IgA-coated beads were incubated with different concentrations (ranging from 1-100 μg/ml in RPMI) of peptides mimicking the CD89 binding site on IgA for 20 minutes at 37° C. PKH67-polymorphonuclear cells (2.5×10^5 cells/well) that had not been incubated (as control) or PKH67-polymorphonuclear cells that had been incubated with blocking antibodies or peptides were seeded in 96 wells flat bottom plates (Greiner). Either non-incubated IgA-coated beads, or IgA-coated beads that had been incubated with peptides were added (10 μl/well). Cells were then incubated for 20′ at 37° C., after which cell suspensions were collected and beads were washed 2 times with PBS to remove unbound PKH67-polymorphonuclear cells. Beads were incubated with a buffer containing 2.0 g/l hexadecyltrimethyl ammonium bromide, 1.0 g/l Tween 20, 2.0 g/l BSA and 7.44 g/l EDTA in PBS to lyse bound PKH67-polymorphonuclear cells. Fluorescence was measured using 485 excitation and 520 emission filters (Fluostar Galaxy, BMG Labtechnologies, Offenburg, Germany) to determine the number of polymorphonuclear cells that had bound to IgA-coated beads. Percentage blocking was determined using the following equation: 100−(number of bound cells in blocking situation/number of bound cells without blocking×100) %.
row,Molecule,blocking of the interaction between IgA and CD89
1,REIGRRLKFWNETDP [Fc alpha 113],up to 19%
2,EDLLLGSEA [IgA CH2],up to 23%

# Same assay, conditions: polymorphonuclear cells
row,Molecule,blocking of the IgA-CD89 interaction / reduction of polymorphonuclear cell migration to IgA-beads (in words)
1,AQAIREAYL,performed well
2,YRIGHYRFR,performed well
3,GRYQCQYRIGHYRFRYSD [Sym-060],performed somewhat less but was still found useful
4,"SCMVGHEALPLAFTQCT [PEO-46#7,8]",provided good results
5,sFcαRI: soluble form of FcαRI: extracellular part (ecto domain) of FcαRI expressed in 293T cells,efficiently block the interaction
6,LKFWNETDP,performed well

# Tested on: polymorphonuclear cells
# Assay: Human skin migration assay (ex vivo skin graft, IgA-coated beads)
# Assay type: cell-based
# Settings: ex vivo mammary skin graft, beads injected intracutaneously, overnight at 37° C.
# Method: A full thickness mammary skin graft (epidermis and dermis) was placed in an ex-vivo tissue incubation chamber (method adapted from Oosterling, S J et al. Ann Surg. 2008; 247(1):85-94). 5 μl of IgA- or BSA-coated beads (17.5 μg/μl) were injected intracutaneously via the dermis, followed by addition of PKH-67 labeled polymorphonuclear cells (4×10^6 cells/well) to the wells. Due to the short half-life of polymorphonuclear cells after isolation, cells were supplemented with IFN-γ (300 units/ml; Boehringer Ingelheim, Alkmaar, The Netherlands). Skin was incubated overnight at 37° C. Biopsies of the injected skin were taken and snap frozen. Sections of biopsies were analysed with bright field and fluorescence microscopy.
row,Molecule,migration of polymorphonuclear cells to IgA-coated beads in human skin
1,"SSMVGHEALPLAFTQKT [PEO-45#7,8, 17-mer stretch (amino acids 431-447) selected from the Fc region of IgA]",completely prevent migration
2,"GRYQAQYRIGHYRFRYSD [PEO-50#8,9, EF loop peptide (CD89 75-92)]",completely prevent migration
3,sFcαRI: soluble form of FcαRI: extracellular part (ecto domain) of FcαRI expressed in 293T cells,completely prevent migration

# Tested on: polymorphonuclear cells
# Assay: Chemotaxis assay with supernatants of IgA-bead migration experiments
# Assay type: cell-based, human
# Settings: mAb 100 μg/ml; U75302 10 μM in ethanol; 40 minutes at 37° C.
# Method: B) Supernatant was collected after addition of IgA-beads, and migration of freshly isolated polymorphonuclear cells to collected supernatant was measured in the presence of anti-BLTR1 (LTB4 receptor), anti-IL-8 or an isotype mAb control. Additionally, either an LTB4 receptor antagonist (U75302 in ethanol) or ethanol alone was added. Migration to supernatant in the absence of inhibitors was set at 100%.
# Chemotaxis assays were essentially performed as described (Frevert et al., J. Immunol. Methods 213, 41 (1998)), modified for use in a 48 well Neuroprobe blind well chemotaxis chamber (Gaithersburg, Md.). Briefly, bottom wells were filled with supernatants of migration experiments (25 μl), and covered with a 3 μm pore polycarbonate filter (Neuroprobe). Purified LTB4 (Sigma) or IL-8 (Peprotech, Rocky Hill, N.J.) were used as positive controls. Top wells were filled with 50 μl calcein AM-labeled polymorphonuclear cells (1×10^6/ml). After a 40 minutes incubation period at 37° C., cells that had migrated towards the lower compartments were quantified with a fluorimeter (485 excitation/520 emission filters). To inhibit IL-8 mediated migration, experiments were conducted in the presence of 100 μg/ml blocking anti-IL-8 mAb (BD Biosciences). LTB4-mediated migration was investigated by blocking LTB4 receptors with 100 μg/ml anti-BLTR1 mAb (BD Biosciences). […]
row,Molecule,chemotactic activity of supernatant of IgA-bead migration experiments
1,"CCCCC/C=C\C[C@@H](O)/C=C/c1cccc(C[C@@H](O)CCCCO)n1 [receptor antagonist, U75302]",reduced
